Patent US10442788B2, “Hepatitis B antiviral agents” (ENANTA PHARMACEUTICALS, INC., priority 2015, dated 2019)

Test system: HBV
Experiment: HepAD38 antiviral assay: reduction of viral product accumulation (virion DNA by qPCR, HBsAg or HBeAg by ELISA)
Format: cell-based
Conditions: Hepatitis B virus, 120 h; HepAD38 cells, five days after compound addition; 50% reduction of viral product accumulation relative to no drug controls; read-out: HepAD38 EC50
Method: Methods: HepAD38 cells are maintained as previously reported (Ladner et al, Antimicrob. Agents Chemother. 1997, […], 1715). Briefly, cells are passaged upon attaining confluency in DMEM/F12 media in the presence of 10% FBS, Penn/Strep, 250 μg/mL G418, and 1 ug/ml tetracycline. Novel compounds are screened by first washing cells three times with PBS to remove tetracycline, and plating in 96 well plates at 35,000 cells/well. Compounds dissolved in DMSO are then diluted 1:200 into wells containing cells. Five days after compound addition, material is harvested for analysis. For an extended 8 day analysis, cells are plated and treated as described above, but media and compound are refreshed on d2 and d5 post initial treatment.
On harvest day, virion DNA is obtained by lysing with Sidestep Lysis and Stabilization Buffer and then quantified via quantitative real time PCR. Commercially available ELISA kits are used to quantitate the viral proteins HBsAg (Alpco) or HbeAg (US Biological) by following the manufacturer's recommended protocol after diluting samples to match the linear range of their respective assays. Irrespective of readout, compound concentrations that reduce viral product accumulation in the cell lysates or supernatants by 50% relative to no drug controls (EC50) are reported; EC50 ranges are as follows: A<1 μM; B 1-10 μM; C>10 μM.

Compound	EC50 [µM]
O=S(=O)(c1cc(-c2nc(-c3ccc(Br)c(F)c3)c[nH]2)ccc1Cl)N1CCn2c(nnc2C(F)(F)F)C1 [Example 265]	< 1
O=S(=O)(c1cc(-c2nc(-c3ccc(Br)c(F)c3)c[nH]2)ccc1Cl)N1CC[C@@H](O)[C@@H](O)CC1 [Example 19]	< 1
CC(C)(C)OC(=O)NCCCCCCNS(=O)(=O)c1cc(-c2nc(-c3ccc(Br)c(F)c3)c[nH]2)ccc1Cl [Example 242]	< 1
COC(=O)NC(C)CCNS(=O)(=O)c1cc(-c2nc(-c3ccc(Br)c(F)c3)c[nH]2)ccc1Cl (stereo not drawn) [Example 188]	< 1
CC(C)(O)C1CN(S(=O)(=O)c2cc(-c3ncc(-c4ccc(Br)c(F)c4)[nH]3)ccc2Cl)C1 [Example 210]	< 1
NS(=O)(=O)c1cc(-c2nc(-c3ccc(Br)c(F)c3)c[nH]2)ccc1Cl [Example 153]	1 to 10
C[C@H]1CCN(S(=O)(=O)c2cc(-c3nc(-c4ccc(Br)c(F)c4)c[nH]3)ccc2Cl)C[C@@H]1O [Example 245]	< 1
COC(=O)NCCCCCCCNS(=O)(=O)c1cc(-c2nc(-c3ccc(Br)c(F)c3)c[nH]2)ccc1Cl [Example 251]	< 1
COC(=O)N(C)CCCNS(=O)(=O)c1cc(-c2nc(-c3ccc(Br)c(F)c3)c[nH]2)ccc1Cl [Example 178]	< 1
O=S(=O)(c1cc(-c2nc(-c3ccc(C4CC4)c(Cl)c3)c[nH]2)ccc1Cl)N1CCC(O)CC1 [Example 157]	< 1
O=S(=O)(c1cc(-c2nc(-c3cccc(F)c3F)c[nH]2)ccc1Cl)N1CCC(O)CC1 [Example 85]	> 10
O=S(=O)(c1cc(-c2nc(-c3ccccc3Cl)c[nH]2)ccc1Cl)N1CCC(O)CC1 [Example 75]	> 10
COC(=O)NCC(=O)NCCCNS(=O)(=O)c1cc(-c2nc(-c3ccc(Br)c(F)c3)c[nH]2)ccc1Cl [Example 201]	1 to 10
COc1ccccc1-c1c[nH]c(-c2ccc(Cl)c(S(=O)(=O)N3CCC(O)CC3)c2)n1 [Example 88]	1 to 10
N#Cc1ccc(-c2c[nH]c(-c3ccc(Cl)c(S(=O)(=O)N4CCC(O)CC4)c3)n2)cc1C1CC1 [Example 170]	< 1
COC(=O)NCCC(C)NS(=O)(=O)c1cc(-c2nc(-c3ccc(Br)c(F)c3)c[nH]2)ccc1Cl (stereo not drawn) [Example 172]	< 1
O=S(=O)(c1cc(-c2ncc(-c3ccc(Br)c(F)c3)[nH]2)ccc1Cl)N1CCC[C@@H](CO)C1 [Example 261]	< 1
[2H]C([2H])([2H])Oc1cc(-c2c[nH]c(-c3ccc(Cl)c(S(=O)(=O)N4CCC(O)CC4)c3)n2)ccc1F [Example 204]	< 1
O=S(=O)(c1cc(-c2nc(-c3ccc(Br)c(F)c3)c[nH]2)ccc1F)N1CCC(O)CC1 [Example 267]	< 1
O=S(=O)(c1cc(-c2ncc(-c3ccc(Br)c(F)c3)[nH]2)ccc1Cl)N1C[C@@H]2[C@@H](O)[C@@H]2C1 [Example 243]	< 1
O=S(=O)(c1cc(-c2nc(-c3ccc(Br)c(F)c3)c[nH]2)ccc1Cl)N1CCC[C@@H](O)CC1 [Example 234]	< 1

Compound	EC50 [µM]
O=S(=O)(c1cc(-c2nc(-c3cccc(CC(F)(F)F)c3)c[nH]2)ccc1Cl)N1CCC(O)CC1 [Example 239]	> 10
O=S(=O)(c1cc(-c2nc(-c3ccc(Cl)c(C4CC4)c3)c[nH]2)ccc1Cl)N1CCC(O)CC1 [Example 17]	< 1
O=S(=O)(c1cc(-c2nc(-c3ccc(Br)c(F)c3)c[nH]2)ccc1Cl)N1C[C@H](O)CC[C@@H](O)C1 [Example 283]	< 1
O=S(=O)(c1cc(-c2nc(-c3cc(F)cc(F)c3)c[nH]2)ccc1Cl)N1CCC(O)CC1 [Example 86]	1 to 10
O=S(=O)(c1cc(-c2nc(-c3ccc(CC(F)(F)F)cc3)c[nH]2)ccc1Cl)N1CCC(O)CC1 [Example 238]	> 10
[2H]C([2H])([2H])Oc1cccc(-c2c[nH]c(-c3ccc(Cl)c(S(=O)(=O)N4CCC(O)CC4)c3)n2)c1 [Example 203]	> 10
O=S(=O)(c1cc(-c2nc(-c3ccc(C(F)(F)F)c(Cl)c3)c[nH]2)ccc1Cl)N1CCC(O)CC1 [Example 151]	< 1
O=S(=O)(c1cc(-c2nc(-c3ccc(Br)c(F)c3)c[nH]2)ccc1Cl)N1C[C@H](O)CC[C@H](O)C1 [Example 284]	< 1
O=S(=O)(c1cc(-c2nc(-c3cc(F)c(F)c(Cl)c3)c[nH]2)ccc1Cl)N1CCC(O)CC1 [Example 78]	> 10
COC(=O)NCC(O)CNS(=O)(=O)c1cc(-c2nc(-c3ccc(Br)c(F)c3)c[nH]2)ccc1Cl (stereo not drawn) [Example 185]	< 1
O=S(=O)(c1cc(-c2nc(-c3ccc(Br)c(F)c3)c[nH]2)ccc1Cl)N1CCN(C2CCCCC2F)CC1 (stereo not drawn) [Example 249]	< 1
CC(C)(C)OC(=O)NCCCCCNS(=O)(=O)c1cc(-c2nc(-c3ccc(Br)c(F)c3)c[nH]2)ccc1Cl [Example 176]	< 1
CC(C)(C)OC(=O)N[C@H]1C[C@H](NS(=O)(=O)c2cc(-c3nc(-c4ccc(Br)c(F)c4)c[nH]3)ccc2Cl)C1 [Example 198]	< 1
O=S(=O)(c1cc(-c2ncc(-c3ccc(Br)c(F)c3)[nH]2)ccc1Cl)N1CCC2CC2(O)C1 (stereo not drawn) [Example 257]	< 1
COC(=O)NC[C@@H]1[C@H]2CN(S(=O)(=O)c3cc(-c4ncc(-c5ccc(F)c(Br)c5)[nH]4)ccc3Cl)C[C@@H]12 [Example 168]	< 1
O=S(=O)(c1cc(-c2nc(-c3ccc(Br)c(F)c3)c[nH]2)ccc1Cl)N1CCN(c2ccc(F)cn2)CC1 [Example 219]	< 1
COc1ccc(-c2c[nH]c(-c3ccc(Cl)c(S(=O)(=O)N4CCC(O)CC4)c3)n2)cc1 [Example 98]	1 to 10
O=S(=O)(c1cc(-c2nc(-c3ccc(Br)c(F)c3)c[nH]2)ccc1Cl)N1CCN(c2cc(Cl)ccn2)CC1 [Example 280]	< 1
N#Cc1cc(-c2c[nH]c(-c3ccc(Cl)c(S(=O)(=O)N4CCC(O)CC4)c3)n2)ccc1C(F)(F)F [Example 150]	< 1
O=S(=O)(c1cc(-c2nc(-c3ccc(Br)c(F)c3)c[nH]2)ccc1Cl)N1C[C@H](O)[C@@H](O)C1 [Example 259]	< 1
CC(C)(C)OC(=O)NC1CN(S(=O)(=O)c2cc(-c3ncc(-c4ccc(Br)c(F)c4)[nH]3)ccc2Cl)C1 [Example 183]	< 1

Compound	EC50 [µM]
[2H]C([2H])([2H])Oc1ccc(-c2c[nH]c(-c3ccc(Cl)c(S(=O)(=O)N4CCC(O)CC4)c3)n2)cc1 [Example 217]	1 to 10
O=S(=O)(c1cc(-c2nc(-c3ccc(Br)c(F)c3)c[nH]2)ccc1Cl)N1CCN([C@@H]2CCCC[C@H]2O)CC1 [Example 250]	< 1
O=C(c1ccccc1)N1CCN(S(=O)(=O)c2cc(-c3nc(-c4ccc(Br)c(F)c4)c[nH]3)ccc2Cl)CC1 [Example 165]	1 to 10
COC(=O)NCC1CCN(S(=O)(=O)c2cc(-c3ncc(-c4ccc(Br)c(F)c4)[nH]3)ccc2Cl)C1 (stereo not drawn) [Example 274]	< 1
O=S(=O)(N[C@H]1C[C@@H](O)C1)c1cc(-c2ncc(-c3ccc(Br)c(F)c3)[nH]2)ccc1Cl [Example 211]	< 1
CC1CC(O)CCN1S(=O)(=O)c1cc(-c2ncc(-c3ccc(Br)c(F)c3)[nH]2)ccc1Cl (stereo not drawn) [Example 209]	< 1
O=S(=O)(c1cc(-c2nc(-c3cccs3)c[nH]2)ccc1Cl)N1CCC(O)CC1 [Example 70]	1 to 10
O=C(NCCCNS(=O)(=O)c1cc(-c2nc(-c3ccc(Br)c(F)c3)c[nH]2)ccc1Cl)c1ccccc1 [Example 181]	< 1
O=S(=O)(c1cc(-c2nc(-c3nccs3)c[nH]2)ccc1Cl)N1CCC(O)CC1 [Example 81]	> 10
COCCN(C)S(=O)(=O)c1cc(-c2ncc(-c3ccc(F)c(Br)c3)[nH]2)ccc1Cl [Example 77]	> 10
CC1(C)CN(S(=O)(=O)c2cc(-c3ncc(-c4ccc(Br)c(F)c4)[nH]3)ccc2Cl)CCC1O (stereo not drawn) [Example 258]	< 1
O=S(=O)(c1cc(-c2nc(-c3ccc(Br)c(F)c3)c[nH]2)ccc1Cl)N1CCCC[C@@H](O)C1 [Example 233]	< 1
O=S(=O)(c1cc(-c2nc(-c3ccc(Br)c(F)c3)c[nH]2)ccc1Cl)N1CCCC[C@H](O)C1 [Example 232]	< 1
O=S(=O)(c1cc(-c2nc(-c3ccc(Br)c(F)c3)c[nH]2)ccc1Cl)N1CCC(c2ccccn2)CC1 [Example 220]	< 1
O=S(=O)(c1cc(-c2nc(-c3ccc(F)c(C(F)F)c3)c[nH]2)ccc1Cl)N1CCC(O)CC1 [Example 248]	> 10
COC(=O)N1C[C@@H]2[C@@H](CNS(=O)(=O)c3cc(-c4ncc(-c5ccc(Br)c(F)c5)[nH]4)ccc3Cl)[C@@H]2C1 [Example 272]	1 to 10
COC(=O)NCCCCNS(=O)(=O)c1cc(-c2nc(-c3ccc(Br)c(F)c3)c[nH]2)ccc1Cl [Example 173]	< 1
O=S(=O)(N[C@H]1CC[C@H](O)CC1)c1cc(-c2ncc(-c3ccc(Br)c(F)c3)[nH]2)ccc1Cl [Example 212]	< 1
Cc1ccc(-c2c[nH]c(-c3ccc(Cl)c(S(=O)(=O)N4CCC(O)CC4)c3)n2)cc1 [Example 96]	1 to 10
O=S(=O)(c1cc(-c2nc(-c3ccc(F)cc3F)c[nH]2)ccc1Cl)N1CCC(O)CC1 [Example 84]	1 to 10

Same assay, conditions: Hepatitis B virus, HePAD38, 120 h, read-out: HepAD38 EC50 (μM)

Compound	EC50 [µM]
O=C(NCCCNS(=O)(=O)c1cc(-c2nc(-c3ccc(Br)c(F)c3)c[nH]2)ccc1Cl)Oc1ccccc1 [Example 179]	< 1
